Measured values from US20170209514A1, “Method For Promoting Bone Length Growth” (Novatec Co., Ltd., priority 2013, published 2017).

How the values were obtained:
Type in all cases: in vivo, Sprague-Dawley rats
[1] = Change in body weight of experimental animals; details: rats, observation of 10 days, FIG. 1 (bamboo extract 200 mg/kg oral; GH 20 μg/kg s.c.)
Description: (§1) 3 weeks-old, male Sprague-Dawley rats were obtained and stabilized for 3 days. The feeding conditions included the temperature of 24±2° C., the light-dark cycle of 12 hours, and common solid feed without the inclusion of antibiotics. While the Control group was treated with saline solution, the bamboo (Bambusae caulis in Taeniam) extract, which was prepared in the powder form as described in the above example 1 and added with water, was orally administered once daily. The Positive Control group was treated subcutaneously with the injection of Eutropin (LG Life Sciences, South Korea) at 20 μg/kg once daily.
Regarding the administration method of the bamboo (Bambusae caulis in Taeniam) extract according to the present invention, rats in all the groups except for the Positive Control group were administered into their oral cavities, while all the rats were administered once daily.
The administered substances and dosages in each group are as follows: • Control Group: normal saline solution 1 ml • Positive Control Group: growth hormone 20 μg/kg • Bamboo (Bambusae caulis in Taeniam)-treated Group: 200 mg/kg […]
Rats of each group in Experiment <1-1> were tested for their body weight at pre- and post-feeding of 10 days. […] The measured values were statistically analyzed for mean value and standard deviation.

[2] = system: tibia; experiment: Measurement of changes in tibia length by X-ray; details: rats, after 10-day administration, vs Control group, FIGS. 3A-3C & 4
Description: as §1
(§2) The administered substances and dosages in each group are as follows: • Control Group: normal saline solution 1 ml • Positive Control Group: growth hormone 20 μg/kg • Bamboo (Bambusae caulis in Taeniam)-treated Group: 200 mg/kg
(§3) After 10 days of feeding and administration of the above-mentioned substances, the rats were sacrificed with autopsy performed to find the following results.
After 10-day administration as described in Experiment <1-1>, both right and left tibias of the rats in the experimental group (i.e. Bamboo (Bambusae caulis in Taeniam) extract-treated group) and the control groups were collected, followed by the removal of the muscles, fats and ligaments attached to the bone tissues. […] Tibia length was measured by X-ray radiographs on the tibias.

[3] = system: osteocalcin; experiment: Osteoblast-activating factor osteocalcin in the serum (ELISA); details: rats, after 10-day administration, in comparison with the Control group, FIG. 10
Description: as §1, §2, §3
After the completion of the administration, blood was collected from the hearts of the experimental rats and coagulated. Serum was then separated so as to obtain samples. Subsequently, the total level of osteocalcin in the serum was measured by using Rat Ostecalcin/Bone Gla Protein. OT/BGP ELISA Kit (Cusabio, product no.: CSB-E05129r).

[4] = system: growth plate; experiment: Changes in cartilaginous tissues within the growth plate (H&E staining); details: rats, after 10-day administration, FIGS. 5A-7
Description: as §1, §2, §3
In order to measure the length of the growth plate zone, the cartilaginous tissues were fixated after autopsy, followed by H&E staining and microscope examination. The length of the growth plate zone was measured five(5) times for each sample. The resulting mean values as obtained were used as a representative value for evaluating their significance.

In the case of “GH: Growth hormone positive control, Eutropin (LG Life Sciences, South Korea), injected subcutaneously at 20 μg/kg once daily”, the Weight change [1] is reported as “no significant difference in weight change”, the Total tibia length [2] is reported as “increased greater than that of the Control group” and the “Level of osteocalcin in the serum” value [3] is reported as “significantly increased”. The “Length of the hypertrophic zone within the growth plate” value [4] was “increased greater than that of the Control group” and the “Length of the proliferative zone within the growth plate” value [4] was “increased greater than that of the Control group”.
